The subject of one series is VEGFA. Kind of series: ELISA of VEGFA secreted into conditioned medium of CES. The class given is cell-based, human. The protocol:
HCT116 CRC cells were grown in ultra-low attachment plate in 3dGROTM Spheroid Medium (Sigma-Aldrich, USA) for 7 days. Spheroids enriched with CSCs were considered as CSC enriched spheres (CESs) or commonly referred as tumorospheres. After 7 days, tumorospheres were subjected to different treatments for 24 h, as per experimental protocol. Media of tumorospheres of all the treatment groups were collected, centrifuged to remove the cell debris and suspended spheres, supernatants were collected and vacuum concentrated. These supernatants were referred as conditioned medium (CM) and were stored at - 20 °C until use. Concentration of the secreted VEGFA was measured using the ELISA kit according to the manufacturer's instruction ([…] BioSystems, India) in CM of CESs as well as in the media of transfected and non-transfected HCT116.
A general note: An ELISA detects its analyte on a solid surface through an enzyme-linked reagent.

Series [1] in a line: Serum cytotoxicity markers (ALT, AST, ALP, BUN, creatinine). It is filed as in vivo. Particulars: BALB/c mice, 10 days, mean ± SD, n = 6. On the procedure: To determine the toxicity of only Orientin treatment in various doses, the mice were divided into five groups. Each group contained six animals (n = 6). Each animal of the vehicle control group (VC) was left untreated, while, mice of other four groups were administered Orientin intravenously with 1 mg/kg b.w, 3 mg/kg b.w, 5 mg/kg b.w and 10 mg/kg b.w dosage respectively for 28 days. […] All the treatments were continued for 10 days. On day 11 all the mice were sacrificed and different parameters were studied.
Blood samples were collected from the retro-orbital venous plexus of mice for quantitative analysis of alanine aminotransferase (ALT), aspartate aminotransferase (AST), alkaline phosphatase (ALP), creatinine and blood urea nitrogen (BUN) in serum following kit protocol (Sigma Aldrich, USA). Optical densities were determined by using a spectrophotometer (Infinite® 200 PRO, TECAN, Switzerland).

For another series, the system named is OCT4, SOX2 and NANOG. Kind of series: Real time PCR of stemness factors in sorted CD44+/CD133+ cells. The class given is cell-based, human. As to conditions: 24 h. The source says:
(§1) CD44^+/CD133^+ cells were isolated using MACS LS column (Miltenyi Biotec, USA) after leveled with CD44 and CD133 antibody conjugated with microbeads (Miltenyi Biotec, USA) by following manufacture’s protocol and subjected to further analysis. Cells expressing both CD44 and CD133 were isolated using magnetic cell sorter (MACS) (Guerriero et al. [2017]).
Total RNA was extracted from sorted CD44^+/CD133^+ cell population using TRIZOL (Thermo Fisher Scientific, USA) as described in manufacturer’s protocol. cDNAs were synthesized from RNA templates by using cDNA isolation kit (Bio-Rad, USA) and target genes like OCT4, SOX2 and NANOG were amplified by using real time PCR kit (Bio-Rad, USA) following manufacturer’s instructions by Roche LightCycler® 96 System (Switzerland). Glyceraldehyde-3-phosphate dehydrogenase (GAPDH) gene expression was used to normalize the expression of the target genes.
Background: Real-time PCR tracks product formation cycle by cycle.

Series [2] relates to chick chorioallantoic membrane. As to the kind of experiment: Chick chorioallantoic membrane (CAM) assay with conditioned medium of CES. As to conditions: CM of treated CES, day 4 vs day 1. The protocol:
HCT116 CRC cells were grown in ultra-low attachment plate in 3dGRO™ Spheroid Medium (Sigma-Aldrich, USA) for 7 days. Spheroids enriched with CSCs were considered as CSC enriched spheres (CESs) or commonly referred as tumorospheres. After 7 days, tumorospheres were subjected to different treatments for 24 h, as per experimental protocol. Media of tumorospheres of all the treatment groups were collected, centrifuged to remove the cell debris and suspended spheres, supernatants were collected and vacuum concentrated. These supernatants were referred as conditioned medium (CM) and were stored at − 20 °C until use. To investigate the role of CSC on angiogenesis, a modified chick chorioallantoic membrane assay was carried out. Briefly, 100 µl CM of treated and untreated spheres were mixed with 1.5 mg/ml type I collagen (Gibco, USA). 10 µl of the mixture were loaded on the piece of 13 mm Thermanox discs (Nunc, Denmark) and permitted to get polymerize. The disc was then applied to the chorioallantoic membrane of a 4 days-old embryo. After 72 h of incubation, the area around the loaded disc was photographed with a digital camera, and the numbers of newly formed vessels were counted by two observers in a double-blind manner (Min et al. [2004]).

A further series concerns HIF1α, VEGFA, NF-ĸB. As to the kind of experiment: Western blot of HIF1α, VEGFA and NF-ĸB in CES. As to conditions: 24 h. The class given is cell-based, human. (In general: Immunoblotting shows a protein as a band on a membrane.)
A further series relates to OCT4, NANOG and SOX2. As to the kind of experiment: Western blot of stemness factors in sorted CD44+/CD133+ cells. The class given is cell-based, human. As to conditions: 24 h, compared to 5FU treated group.
Description: as §1
Protein samples were extracted from treated and untreated cells and subjected to western blot analysis by standard protocol (Bhowmik et al. [2013]). Cells were incubated with Brefeldin A (10 µg/ml) for 4 h before harvesting to determine VEGFA expression. Briefly, cells were lysed with RIPA buffer [50 mmol/L Tris–HCl (pH 7.8), 150 mmol/L NaCl, 1% Triton X-100, 0.1% SDS, 0.5% sodium deoxycholate, and 1 mmol/L EDTA] containing complete protease inhibitor cocktail. Equal amount of protein was electrophoresed on SDS-PAGE and electro transferred onto polyvinylidene difluoride (PVDF) membranes using Bio-Rad mini gel apparatus. […] Signals were detected with the ECL system (Promega, USA) and images were captured in iBright™ CL1500 Imaging System.

For series [3], the system named is CES from HIF1α transfected HCT116 cells. As to the kind of experiment: Diameter and number of CES from HIF1α transfected HCT116 cells. It is filed as cell-based, human. The protocol:
HCT116 CRC cells were grown in ultra-low attachment plate in 3dGRO™ Spheroid Medium (Sigma-Aldrich, USA) for 7 days. Spheroids enriched with CSCs were considered as CSC enriched spheres (CESs) or commonly referred as tumorospheres. After 7 days, tumorospheres were subjected to different treatments for 24 h, as per experimental protocol. Media of tumorospheres of all the treatment groups were collected, centrifuged to remove the cell debris and suspended spheres, supernatants were collected and vacuum concentrated. These supernatants were referred as conditioned medium (CM) and were stored at − 20 °C until use.
HCT116 cells were transiently transfected with HA-HIF1α-pcDNA3 plasmid (Addgene, USA, Plasmid #18949) by using lipofectamineTM 2000 (Thermo Fisher Scientific, USA) according to the manufacturer’s instructions. After 24 h of transfection, those cells were subjected to various experiments.

Here are results for two compounds from PMC11881437 (Molecular Medicine, 2025).

Description for HIF1α, VEGFA, NF-ĸB: Cells were incubated with Brefeldin A (10 µg/ml) for 4 h before harvesting to determine VEGFA expression. Briefly, cells were lysed with RIPA buffer [50 mmol/L Tris–HCl (pH 7.8), 150 mmol/L NaCl, 1% Triton X-100, 0.1% SDS, 0.5% sodium deoxycholate, and 1 mmol/L EDTA] containing complete protease inhibitor cocktail. Equal amount of protein was electrophoresed on SDS-PAGE and electro transferred onto polyvinylidene difluoride (PVDF) membranes using Bio-Rad mini gel apparatus. The membranes were probed with OCT4 (Thermo Fisher Scientific, USA), SOX2 (AbCam, USA), NANOG (Thermo Fisher Scientific, USA), HIF1α (Thermo Fisher Scientific, USA) and VEGFA (Thermo Fisher Scientific, USA) and NF-ĸB (Santa Cruz Biotechnology, USA) antibodies. β-Actin (Santa Cruz Biotechnology, USA) and α-TUBULIN (Santa Cruz Biotechnology, USA) antibodies were used as loading control. Then, the blots were probed with HRP tagged secondary antibodies. Signals were detected with the ECL system (Promega, USA) and images were captured in iBright™ CL1500 Imaging System.

Turning to `O=c1[nH]cc(F)c(=O)[nH]1` [5FU, 5-Fluorouracil, reference compound], the “VEGFA secreted into CM of CES” value in the series on VEGFA was “stimulated”. In series [1], this compound came in with an ALP of 168.44 ± 4.09 U/ml, an ALT of 121.70 ± 3.95 U/ml, an AST of 219.16 ± 2.83 U/ml and a BUN of 30.76 ± 0.46 mg/dL. In series [1], this compound had a Creatinine of 0.73 ± 0.023 mg/dL. Besides, in the series on OCT4, SOX2 and NANOG, the “mRNA level of stemness maintenance factors (OCT4, NANOG, SOX2)” value is “increased”. Further, the “number of blood vessels formed in CAM” value in series [2] is recorded as “increase in number of blood vessel formation”.

In the case of `O=c1cc(-c2ccc(O)c(O)c2)oc2c([C@@H]3O[C@H](CO)[C@@H](O)[C@H](O)[C@H]3O)c(O)cc(O)c12` [Orientin], in series [1], the ALP stood at 94.23 ± 2.10 U/ml, the ALT stood at 49.08 ± 1.99 U/ml, the AST came out at 134.7 ± 2.00 U/ml and the BUN worked out at 21.48 ± 0.53 mg/dL. Also, the Creatinine in series [1] amounted to 0.49 ± 0.020 mg/dL. Further, the “mRNA level of stemness maintenance factors (OCT4, NANOG, SOX2)” value in the series on OCT4, SOX2 and NANOG is reported as “decreased”. The NF-ĸB expression entry in the series with HIF1α, VEGFA, NF-ĸB is listed as “downregulated”. In the series on OCT4, NANOG and SOX2, the “protein expression of OCT4, NANOG and SOX2” value is on record as “downregulated”. In series [3], the diameter of spheres result is recorded as “decrease” and the number of spheres entry is “decrease”. For the same compound, in series [2], the “number of blood vessels formed in CAM” value is listed as “Non-significant change”.
